Assay results as given in patent US12435081B2, “Methods of treatment using BCN057 and BCN512” (BCN Biosciences L.L.C., priority 2019, dated 2025).

How the values were obtained:
Wnt activity [1] = assay: TOPFLASH assay of exosomes purified from lung organoid conditioned medium; type: cell-based, mice; settings: irradiated organoids treated with BCN512 compared to irradiated control
Protocol: If BCN512 and related structures inhibit the activity of SRFPs, BCN512 can allow more free Wnt ligand from epithelial cells. Free Wnt ligands are secreted and transported through exosomes. To determine the role of BCN512 in pulmonary epithelium derived Wnt release, exosomes were purified from organoid conditioned medium. Purified exosomes were tested for Wnt activity by the TOPFLASH assay.
Wnt activity has also been examined in exosomes derived from human lung organoids.

Wnt activity [2] = assay: TOPFLASH assay of exosomes purified from human lung organoid conditioned medium; type: cell-based; settings: human lung organoids irradiated (4-6 Gy), treated with BCN512, compared to irradiated control
Protocol: For the role of BCN512 in human pulmonary epithelium derived Wnt release, exosome were purified from organoid conditioned medium. Purified exosomes were tested for Wnt activity by TOPFLASH assay.

TGFβ = assay: Histopathology of lung and cardiac muscle sections stained for TGFβ after thoracic radiation; type: in vivo, C57M Male mice
Protocol: Transforming growth factor β (TGF-β) is a central mediator of fibrogenesis. […] TGFβ is reduced when treated for the first 20 days post radiation with BCN512 at 5 mg/kg. Images D-F are cardiac muscle stains under the identical parameters above from the same animals. […] We expect the same results using non-radiation induced stimuli including LPS and cytotoxic drugs.

lung fibrosis = assay: Fibrotic lesions in lung sections; type: in vivo; settings: BCN512 treated (20×512) vs. vehicle (20×V), C57BL mice, day 180, five mice per group
Text: Lesions were defined by local density with five mice per group assessed at day 180. This effect is observed with non-radiation induced stimuli such as LPS and cytotoxic drugs.

[3] = test system: HEK293 cells having a TCF/LEF luciferase reporter construct; assay: TCF/LEF luciferase reporter assay of canonical WNT activity; type: cell-based; settings: after 24 hours, compared with vehicle treated cells
Protocol: These studies and observations are consistent with previous observations, specifically that WNT-catenin signaling promotes the self-renewal and differentiation of LGR5+ epithelial (lung, oral, intestinal) stem cells. Canonical WNT activity was measured in HEK293 cells having a TCF/LEF luciferase reporter construct. Luciferase activity was measured after 24 hours.

[4] = test system: pancreatic cancer cell lines; assay: ATP Lite viability assay of pancreatic cancer cell lines; type: cell-based
Protocol: FIG. 1 depicts the Effects of 5-FU and BCN057 on the viability of pancreatic cancer cell lines. The Effects of 5-FU and BCN057 on the viability of pancreatic cancer cell lines were assessed by ATP Lite assay (Perkin Elmer). 50 uM 5Fu (5Fu, n=5), 50 uM 5Fu and 2, 5, 10, and 20 uM BCN057 (5Fu+BCN057, n=5) or 2, 5, 10.20 uM CN057 (CN057, n=5). Control cells (V, n=5) The Percent Phosphorylation was calculated by dividing the average value for each condition by the average value of the control cells (V) at each time point.
FIGS. 4A and 4B show Compound H, Compound K and the results of a Viability Assay on Pancreatic Cells. […] The numeric data is also included (FIG. 4B). FIG. 5A depicts Compound H and FIG. 5B depicts Compound K.

[5] = Solubility in aqueous formulations; type: physicochemical; settings: 30 wt % Captisol (SBE-beta-CD) and 100 mM MSA, at up to pH 4.1 or higher
Panc-1 cells = assay: RealTime-Glo Annexin V Apoptosis and Necrosis Assay; type: cell-based
Protocol: FIGS. 2A and 2B depict the Annexin V Apoptosis and Necrosis Assay in Panc-1 cells. Panc-1 cells were exposed to serial dilutions of 057 in the presence or absence of the RealTime-Glo™ Annexin V Apoptosis and Necrosis Assay Reagent. The plate was incubated at 37° C./5% CO2 and luminescence (Annexin V binding) was measured over a period of 6 hours.

[6] = test system: pancreatic cancer cell lines; assay: Imaging of pancreatic cancer cell lines over time; type: cell-based; settings: 10 uM, time 0 to 240 minutes
Protocol: FIG. 3 depicts the Effects of 10 uM BCN057 on the viability of pancreatic cancer cell lines. The images show pancreatic cancer cell lines at time 0 (FIG. 3A), 15 minutes (FIG. 3B), 30 minutes (FIG. 3C), 60 minutes (FIG. 3D), 120 minutes (FIG. 3E) and 240 minutes (FIG. 3F).

Row | Structure (SMILES) | exosomal Wnt activity (Wnt activity [1]) | exosomal Wnt activity (Wnt activity [2]) | TGFβ staining in lung sections (TGFβ; 14Gy thoracic radiation, 5 mg/kg for the first 20 days post radiation, assessed on day 90) | TGFβ staining with non-radiation induced stimuli (TGFβ; non-radiation induced stimuli including LPS and cytotoxic drugs) | TGFβ staining in cardiac muscle (TGFβ; same animals and parameters: 14Gy thoracic radiation, 5 mg/kg for first 20 days, day 90) | lung fibrosis (number of fibrotic lesions in lung sections) (lung fibrosis) | luciferase activity [3] | antineoplastic activity / proliferation of the tumor cell line [4] | solubility [5] | fluorescence (necrosis) (Panc-1 cells; over the same 6 hour period) | apoptosis (luminescence, Annexin V binding) (Panc-1 cells; serial dilutions, measured over 6 hours) | morphological changes and apoptosis [6]
1 | O=[N+]([O-])c1ccc([S@SP3](=O)(=O)N2CCN(c3ccccc3)CC2)cc1 [BCN512, 1-[(4-nitrobenezene)sulfonyl]-4-phenyl piperazine] | several folds higher | several folds high | reduced | same results | significant reduction | significant reduction | significantly increased |  |  |  |  | 
2 | COc1ccc2cc(-c3nc4ccc(C)cn4c3NCc3ccco3)c(=O)[nH]c2c1 [BCN057, (3-[(Furan-2-ylmethyl)-amino]-2-(7-methoxy-2-oxo-1,2-dihydro-quinolin-3-yl)-6-methyl-imidazo[1,2-a]pyridin-1-ium)] |  |  |  |  |  |  |  | inhibits the proliferation of the tumor cell line | excellent solubility | No change | increase with increasing concentrations | particularly apparent at 240 minutes
